In ChEMBL document CHEMBL4000244, “Probing A-form DNA: A fluorescent aminosugar probe and dual recognition by anthraquinone-neomycin conjugates” (Bioorg Med Chem, 2017):

How the values were obtained:
[1] = Binding affinity to 5'-CGGGGCCC-3' DNA hairpin assessed as change in fluorescence intensity at 1 uM after 45 mins by fluorescence quenching analysis relative to control
[2] = Binding affinity to 5'-CCGGGGCG-3' DNA hairpin assessed as change in fluorescence intensity at 1 uM after 45 mins by fluorescence quenching analysis relative to control
[3] = Binding affinity to 5'-CCCCCCCG-3' DNA hairpin assessed as change in fluorescence intensity at 1 uM after 45 mins by fluorescence quenching analysis relative to control
[4] = Binding affinity to 5'-GGGCGGCC-3' DNA hairpin assessed as change in fluorescence intensity at 1 uM after 45 mins by fluorescence quenching analysis relative to control
[5] = Binding affinity to 5'-GCGCGGCC-3' DNA hairpin assessed as change in fluorescence intensity at 1 uM after 45 mins by fluorescence quenching analysis relative to control
[6] = Binding affinity to 5'-GCGCCCGC-3' DNA hairpin assessed as change in fluorescence intensity at 1 uM after 45 mins by fluorescence quenching analysis relative to control
[7] = Binding affinity to 5'-CGCCCCCG-3' DNA hairpin assessed as change in fluorescence intensity at 1 uM after 45 mins by fluorescence quenching analysis relative to control
[8] = Binding affinity to 5'-CCCGGCGG-3' DNA hairpin assessed as change in fluorescence intensity at 1 uM after 45 mins by fluorescence quenching analysis relative to control
[9] = Binding affinity to 5'-CCCCCGGG-3' DNA hairpin assessed as change in fluorescence intensity at 1 uM after 45 mins by fluorescence quenching analysis relative to control
[10] = Binding affinity to 5'-GGCGCGCG-3' DNA hairpin assessed as change in fluorescence intensity at 1 uM after 45 mins by fluorescence quenching analysis relative to control
[11] = Binding affinity to 5'-GGCCCCCG-3' DNA hairpin assessed as change in fluorescence intensity at 1 uM after 45 mins by fluorescence quenching analysis relative to control
[12] = Binding affinity to 5'-CGGGGCGC-3' DNA hairpin assessed as change in fluorescence intensity at 1 uM after 45 mins by fluorescence quenching analysis relative to control
[13] = Binding affinity to 5'-CGCGCGCG-3' DNA hairpin assessed as change in fluorescence intensity at 1 uM after 45 mins by fluorescence quenching analysis relative to control
[14] = Binding affinity to 5'-GGCCCCCC-3' DNA hairpin assessed as change in fluorescence intensity at 1 uM after 45 mins by fluorescence quenching analysis relative to control
[15] = Binding affinity to 5'-CCGGCCCC-3' DNA hairpin assessed as change in fluorescence intensity at 1 uM after 45 mins by fluorescence quenching analysis relative to control
[16] = Binding affinity to 5'-CGGGCCGG-3' DNA hairpin assessed as change in fluorescence intensity at 1 uM after 45 mins by fluorescence quenching analysis relative to control
[17] = Binding affinity to 5'-GCCCCGCG-3' DNA hairpin assessed as change in fluorescence intensity at 1 uM after 45 mins by fluorescence quenching analysis relative to control
[18] = Binding affinity to 5'-CGGCGCGC-3' DNA hairpin assessed as change in fluorescence intensity at 1 uM after 45 mins by fluorescence quenching analysis relative to control
[19] = Binding affinity to 5'-GGCGGGGC-3' DNA hairpin assessed as change in fluorescence intensity at 1 uM after 45 mins by fluorescence quenching analysis relative to control
[20] = Binding affinity to 5'-CGGCGCCG-3' DNA hairpin assessed as change in fluorescence intensity at 1 uM after 45 mins by fluorescence quenching analysis relative to control
[21] = Binding affinity to 5'-CCGCGCGC-3' DNA hairpin assessed as change in fluorescence intensity at 1 uM after 45 mins by fluorescence quenching analysis relative to control
[22] = Binding affinity to 5'-GGCCGCCC-3' DNA hairpin assessed as change in fluorescence intensity at 1 uM after 45 mins by fluorescence quenching analysis relative to control
[23] = Binding affinity to 5'-CGCCCGCG-3' DNA hairpin assessed as change in fluorescence intensity at 1 uM after 45 mins by fluorescence quenching analysis relative to control
[24] = Binding affinity to 5'-GCCCGGGG-3' DNA hairpin assessed as change in fluorescence intensity at 1 uM after 45 mins by fluorescence quenching analysis relative to control
[25] = Binding affinity to 5'-GGGGGCCC-3' DNA hairpin assessed as change in fluorescence intensity at 1 uM after 45 mins by fluorescence quenching analysis relative to control
[26] = Binding affinity to 5'-CCGGGGCC-3' DNA hairpin assessed as change in fluorescence intensity at 1 uM after 45 mins by fluorescence quenching analysis relative to control
[27] = Binding affinity to 5'-GGGGCGCG-3' DNA hairpin assessed as change in fluorescence intensity at 1 uM after 45 mins by fluorescence quenching analysis relative to control
[28] = Binding affinity to 5'-CGGCGGCC-3' DNA hairpin assessed as change in fluorescence intensity at 1 uM after 45 mins by fluorescence quenching analysis relative to control
[29] = Binding affinity to 5'-CCCGCCCG-3' DNA hairpin assessed as change in fluorescence intensity at 1 uM after 45 mins by fluorescence quenching analysis relative to control
[30] = Binding affinity to 5'-CGCGCGGC-3' DNA hairpin assessed as change in fluorescence intensity at 1 uM after 45 mins by fluorescence quenching analysis relative to control
[31] = Binding affinity to 5'-CGGCCCGC-3' DNA hairpin assessed as change in fluorescence intensity at 1 uM after 45 mins by fluorescence quenching analysis relative to control
[32] = Binding affinity to 5'-GCGGCGCC-3' DNA hairpin assessed as change in fluorescence intensity at 1 uM after 45 mins by fluorescence quenching analysis relative to control
[33] = Binding affinity to 5'-GGCCGGGG-3' DNA hairpin assessed as change in fluorescence intensity at 1 uM after 45 mins by fluorescence quenching analysis relative to control
[34] = Binding affinity to 5'-GCGCGCGC-3' DNA hairpin assessed as change in fluorescence intensity at 1 uM after 45 mins by fluorescence quenching analysis relative to control
[35] = Binding affinity to 5'-GCCCCCGG-3' DNA hairpin assessed as change in fluorescence intensity at 1 uM after 45 mins by fluorescence quenching analysis relative to control
[36] = Binding affinity to 5'-GGGGCCCG-3' DNA hairpin assessed as change in fluorescence intensity at 1 uM after 45 mins by fluorescence quenching analysis relative to control

- Activity [1]: 40.4%
- Activity [2]: 37.5%
- Activity [3]: 19.9%
- Activity [4]: 49.4%
- Activity [5]: 50.4%
- Activity [6]: 50.3%
- Activity [7]: 31.8%
- Activity [8]: 39.8%
- Activity [9]: 35.1%
- Activity [10]: 57.1%
- Activity [11]: 16%
- Activity [12]: 49%
- Activity [13]: 43.6%
- Activity [14]: 15%
- Activity [15]: 39.4%
- Activity [16]: 48.2%
- Activity [17]: 36.7%
- Activity [18]: 46.2%
- Activity [19]: 43.2%
- Activity [20]: 42.9%
- Activity [21]: 57.5%
- Activity [22]: 37.9%
- Activity [23]: 45.7%
- Activity [24]: 38.8%
- Activity [25]: 34.4%
- Activity [26]: 37.6%
- Activity [27]: 43.4%
- Activity [28]: 43.8%
- Activity [29]: 46.5%
- Activity [30]: 43.8%
- Activity [31]: 39.9%
- Activity [32]: 49.9%
- Activity [33]: 38.1%
- Activity [34]: 45.2%
- Activity [35]: 16%
- Activity [36]: 29.7%
SMILES: NCC1O[C@H](O[C@H]2[C@@H](O)[C@H](O[C@@H]3[C@@H](O)[C@H](N)C[C@H](N)[C@H]3O[C@H]3O[C@H](CN)[C@@H](O)[C@H](O)[C@H]3N)O[C@@H]2CSCCNC(=O)CCSCC(=O)Nc2ccc(-c3c4ccc(=O)cc-4oc4cc(O)ccc34)c(C(=O)O)c2)[C@H](N)[C@@H](O)[C@@H]1O (stereo partly specified)
